Assay results: ChEMBL document CHEMBL1201862, “PubChem BioAssay data set” (2004)
Structures can show the parent of a compound that is named as a salt.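 The compound was tested at five concentrations on cells cultured in 96-well plates, with a 48-hour exposure period. The concentration for 50% growth inhibition is given as GI50.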 The source made the active and inactive calls. No stated cut-off is given here; in the data, active = GI50 up to about 1.1 µM and inactive = higher. Non-standard residues stand in square brackets, D forms with d. Residues, ends and D or L forms follow the SMILES beside them. ξ: configuration not given here. *: point of attachment. dThr(3ξ) = CC(O)[C@@H](N)C(=O)O; dNMeL = CN[C@H](CC(C)C)C(=O)O; OBn = c1ccc(CO*)cc1; ξLac = CC(O)C(=O)O

Legend:
Assay in all cases: NCI-60 cell line screen, 48 h
[1] = tested on: HOP-92
[2] = tested on: SNB-19
[3] = tested on: SW-620
[4] = tested on: EKVX
[5] = tested on: IGROV-1
[6] = tested on: SNB-75
[7] = tested on: SK-MEL-28
[8] = tested on: COLO 205
[9] = tested on: HCT-116
[10] = tested on: SF-539
[11] = tested on: UO-31
[12] = tested on: K562
[13] = tested on: SF-295
[14] = tested on: CCRF-CEM
[15] = tested on: HL-60
[16] = tested on: NCI-H23
[17] = tested on: T47D
[18] = tested on: A549
[19] = tested on: HT-29
[20] = tested on: OVCAR-8

Row | Compound | GI50 [1] | GI50 [2] | GI50 [3] | GI50 [4] | GI50 [5] | GI50 [6] | GI50 [7] | GI50 [8] | GI50 [9] | GI50 [10] | GI50 [11] | GI50 [12] | GI50 [13] | GI50 [14] | GI50 [15] | GI50 [16] | GI50 [17] | GI50 [18] | GI50 [19] | GI50 [20]
1 | CCOP(=O)(OCC)C(F)(F)CC1CCCCC1 | > 10 µM (inactive) | > 10 µM (inactive) | > 10 µM (inactive) | > 10 µM (inactive) | > 10 µM (inactive) | 4.38 µM (inactive) | > 10 µM (inactive) | > 10 µM (inactive) | > 10 µM (inactive) | > 10 µM (inactive) | > 10 µM (inactive) | > 10 µM (inactive) | > 10 µM (inactive) | > 10 µM (inactive) | > 10 µM (inactive) | > 10 µM (inactive) | > 10 µM (inactive) | > 10 µM (inactive) | > 10 µM (inactive) | > 10 µM (inactive)
2 | O=[N+]([O-])c1ccc(/C=N/n2c(CO)nc3ccccc32)o1 | 3.51 µM (inactive) | 15.8 µM (inactive) | 5.71 µM (inactive) | 11.3 µM (inactive) | 0.993 µM (active) | 24.6 µM (inactive) | 3.52 µM (inactive) | 3.1 µM (inactive) | 1.71 µM (inactive) | 17.9 µM (inactive) | 8.32 µM (inactive) | 4.67 µM (inactive) | 11.7 µM (inactive) | 3.78 µM (inactive) | 2.3 µM (inactive) | 5.42 µM (inactive) | 20.5 µM (inactive) | 10.5 µM (inactive) | 2.8 µM (inactive) | 10.3 µM (inactive)
3 | CN(C)CCS/C(=N\c1ccccc1)N1C=COC=C1 | 26.2 µM (inactive) | > 100 µM (inactive) | 21.4 µM (inactive) | 86.1 µM (inactive) | 18 µM (inactive) | > 78.7 µM (inactive) | 19.5 µM (inactive) | 27.2 µM (inactive) | 23.6 µM (inactive) | 29.2 µM (inactive) | 57.3 µM (inactive) | > 67.8 µM (inactive) | 99.8 µM (inactive) | > 74.6 µM (inactive) | > 77.6 µM (inactive) | 25.8 µM (inactive) | 15.3 µM (inactive) | > 100 µM (inactive) | 43.7 µM (inactive) | 37.5 µM (inactive)
4 | O=C1c2ccccc2C(=O)c2c(NCC3CO3)ccc(NCC3CO3)c21 (stereo not given) | 10.3 µM (inactive) | 15.1 µM (inactive) | 1.22 µM (inactive) | > 32.2 µM (inactive) | 3.78 µM (inactive) | 26.7 µM (inactive) | 2.71 µM (inactive) | 4.99 µM (inactive) | 0.171 µM (active) | 1.91 µM (inactive) | 1.87 µM (inactive) | 0.128 µM (active) | 3.59 µM (inactive) | < 0.01 µM (active) | < 0.01 µM (active) | 1.49 µM (inactive) | 4.2 µM (inactive) | 2.4 µM (inactive) | 1.88 µM (inactive) | 0.63 µM (active)
5 | Nc1ccc(-c2nc3cc(F)ccc3s2)cc1I | 17.3 µM (inactive) | 21.1 µM (inactive) | 27.5 µM (inactive) | 9.46 µM (inactive) | < 0.01 µM (active) | 16.1 µM (inactive) | 52.7 µM (inactive) | 2.45 µM (inactive) | 18.5 µM (inactive) | 15.6 µM (inactive) | 16.1 µM (inactive) | > 77.3 µM (inactive) | 14.2 µM (inactive) | > 100 µM (inactive) | > 100 µM (inactive) | 0.445 µM (active) | 0.0658 µM (active) | 23.6 µM (inactive) | 0.889 µM (active) | 19.1 µM (inactive)
6 | COc1ccc(C(F)(F)F)cc1NC(=O)O/N=C(/Cl)C(C)C | 7.33 µM (inactive) | 18.7 µM (inactive) | 3.33 µM (inactive) | 17.7 µM (inactive) | 17.9 µM (inactive) | 16.8 µM (inactive) | 21.4 µM (inactive) | 2.03 µM (inactive) | 16.4 µM (inactive) | 18.3 µM (inactive) | 18.5 µM (inactive) | 1.91 µM (inactive) | > 47.1 µM (inactive) | 2.24 µM (inactive) | 2.76 µM (inactive) | 19.7 µM (inactive) | 20 µM (inactive) | 20.8 µM (inactive) | 23.9 µM (inactive) | 21.9 µM (inactive)
7 | FC(F)(F)c1ccc2nc(Sc3ccc4ccccc4c3)cnc2c1 | > 100 µM (inactive) | > 100 µM (inactive) | 77.4 µM (inactive) | 94 µM (inactive) | > 100 µM (inactive) | > 100 µM (inactive) | > 100 µM (inactive) | 75 µM (inactive) | 46 µM (inactive) | 36.3 µM (inactive) | > 100 µM (inactive) | 45.8 µM (inactive) | 65.2 µM (inactive) | 24.4 µM (inactive) | 31.6 µM (inactive) | 41.9 µM (inactive) | 23.1 µM (inactive) | > 100 µM (inactive) | 87.3 µM (inactive) | > 100 µM (inactive)
8 | CC(=O)OC(C)[C@@H](NC(=O)[C@@H](CC(C)C)N(C)C(=O)[C@@H]1CCCN1C(=O)C(C)O)C(=O)OCc1ccccc1 (stereo not given in full) (H-[ξLac]P[dNMeL][dThr(3ξ)](Ac)-OBn) | > 100 µM (inactive) | > 100 µM (inactive) | > 100 µM (inactive) | > 100 µM (inactive) | > 100 µM (inactive) | 81.7 µM (inactive) | > 100 µM (inactive) | > 100 µM (inactive) | > 100 µM (inactive) | > 100 µM (inactive) | > 100 µM (inactive) | > 100 µM (inactive) | > 100 µM (inactive) | > 100 µM (inactive) | > 100 µM (inactive) | > 100 µM (inactive) | > 100 µM (inactive) | > 100 µM (inactive) | > 100 µM (inactive) | > 100 µM (inactive)
9 | OC(CNc1ccccn1)c1ccccc1 (stereo not given) [PHENYRAMIDOL HYDROCHLORIDE] | > 100 µM (inactive) | > 100 µM (inactive) | > 100 µM (inactive) | > 100 µM (inactive) | > 100 µM (inactive) | > 100 µM (inactive) | > 100 µM (inactive) | > 100 µM (inactive) | > 100 µM (inactive) | > 100 µM (inactive) | > 100 µM (inactive) | 85.5 µM (inactive) | > 100 µM (inactive) | > 100 µM (inactive) | > 100 µM (inactive) | > 100 µM (inactive) | > 100 µM (inactive) | > 100 µM (inactive) | > 100 µM (inactive) | > 100 µM (inactive)
10 | NC(Cc1ccc(N(CCCl)CCCl)cc1)C(=O)NC(CCC(=O)O)C(=O)O (stereo not given) | > 100 µM (inactive) | > 100 µM (inactive) | > 100 µM (inactive) | > 100 µM (inactive) | > 100 µM (inactive) | > 100 µM (inactive) | > 100 µM (inactive) | > 100 µM (inactive) | > 100 µM (inactive) | > 100 µM (inactive) | > 100 µM (inactive) | > 100 µM (inactive) | > 100 µM (inactive) | > 100 µM (inactive) | > 100 µM (inactive) | > 100 µM (inactive) | > 100 µM (inactive) | > 100 µM (inactive) | > 100 µM (inactive) | > 100 µM (inactive)
11 | CC(=O)c1cccc(NC2C(N)C(NC(=O)N(C)C)(C(C)O)C(C)(O)C2(O)COC(=O)c2c(C)cccc2O)c1 (stereo not given) | < 0.001 µM (active) | < 0.001 µM (active) | < 0.001 µM (active) | < 0.001 µM (active) | < 0.001 µM (active) | 0.0948 µM (active) | < 0.001 µM (active) | < 0.001 µM (active) | < 0.001 µM (active) | < 0.001 µM (active) | 0.00191 µM (active) | < 0.001 µM (active) | 0.00107 µM (active) | < 0.001 µM (active) | < 0.001 µM (active) | < 0.001 µM (active) | < 0.001 µM (active) | < 0.001 µM (active) | < 0.001 µM (active) | < 0.001 µM (active)
12 | C=CCC(CCC(C)=O)(C(=O)OCC)C(=O)OCC | > 100 µM (inactive) | > 100 µM (inactive) | > 100 µM (inactive) | > 100 µM (inactive) | > 100 µM (inactive) | > 100 µM (inactive) | > 100 µM (inactive) | > 100 µM (inactive) | > 100 µM (inactive) | > 100 µM (inactive) | > 100 µM (inactive) | > 100 µM (inactive) | > 100 µM (inactive) | > 100 µM (inactive) | > 100 µM (inactive) | > 100 µM (inactive) | > 100 µM (inactive) | > 100 µM (inactive) | > 100 µM (inactive) | > 100 µM (inactive)
13 | COc1cc2[nH]c(=O)c3cc(-c4ccccc4)cc4c(Cl)nc(c1OC)c2c43 | 41.8 µM (inactive) | 28.1 µM (inactive) | 3.37 µM (inactive) | 14 µM (inactive) | 19.1 µM (inactive) | > 39.4 µM (inactive) | 32.1 µM (inactive) | 11.6 µM (inactive) | 3.1 µM (inactive) | 0.63 µM (active) | 19.2 µM (inactive) | 38.2 µM (inactive) | > 49.4 µM (inactive) | 4.88 µM (inactive) | 2.17 µM (inactive) | 15.3 µM (inactive) | 24.4 µM (inactive) | 23.2 µM (inactive) | 3.92 µM (inactive) | 5.14 µM (inactive)
14 | CCc1cn(C2CC(CO)C(CO)S2)c(=O)[nH]c1=O (stereo not given) | > 100 µM (inactive) | > 100 µM (inactive) | > 100 µM (inactive) | > 100 µM (inactive) | > 100 µM (inactive) | > 100 µM (inactive) | > 100 µM (inactive) | > 100 µM (inactive) | > 100 µM (inactive) | > 100 µM (inactive) | > 100 µM (inactive) | > 100 µM (inactive) | > 100 µM (inactive) | > 100 µM (inactive) | > 100 µM (inactive) | > 100 µM (inactive) | > 100 µM (inactive) | > 100 µM (inactive) | > 100 µM (inactive) | > 100 µM (inactive)
